In BindingDB's records for patent US11168088 (2021) one finds IC50 data, which are given here for 6 compounds.

The first test deals with Cyclin-dependent kinase 2 (Homo sapiens, UniProt P24941).
`Cc1c2c(nn1C)CCc1cnc(Nc3ccc(CN4CCN(C)CC4)cn3)nc1-2` [US11168088, Compound D1] displayed an IC50 of 23 nM.
In turn, `CCN1CCN(Cc2ccc(Nc3ncc4c(n3)-c3c(nn(CC)c3C(C)C)CC4)nc2)CC1` [US11168088, Compound P-2] had a concentration for half-maximal inhibition (IC50) of 896 nM.
The same measure, in the same setting: in the case of `CCc1nc2c(n1C(C)C)-c1nc(Nc3ccc(CN4CCN(CC)CC4)cn3)ncc1C2` [US11168088, Compound P-5] it was 3000 nM; in that of `CCN1CCN(c2ccc(Nc3ncc4c(n3)-c3c(cnn3C(C)C)CC4)nc2)CC1` [US11168088, Compound P-12], 7980 nM; in that of `CC(C)n1ncc2c1-c1nc(Nc3ccc(N4CCNCC4)cn3)ncc1CC2` [US11168088, Compound P-25], 8520 nM.

The target in the next test is Cyclin-dependent kinase 6/G1/S-specific cyclin-D1 (Homo sapiens, UniProt Q00534).
Chain of Cyclin-dependent kinase 6/G1/S-specific cyclin-D1 (P24385 whole entry): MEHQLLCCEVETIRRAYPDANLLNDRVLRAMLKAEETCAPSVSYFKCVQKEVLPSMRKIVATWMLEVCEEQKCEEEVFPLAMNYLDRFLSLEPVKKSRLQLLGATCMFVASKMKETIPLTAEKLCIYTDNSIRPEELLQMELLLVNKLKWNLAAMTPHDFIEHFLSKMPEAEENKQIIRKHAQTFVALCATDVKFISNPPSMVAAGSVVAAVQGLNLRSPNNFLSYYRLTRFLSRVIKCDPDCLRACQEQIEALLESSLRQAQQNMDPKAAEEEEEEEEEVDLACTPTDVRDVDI
Chain of Cyclin-dependent kinase 6/G1/S-specific cyclin-D1 (Q00534 whole entry): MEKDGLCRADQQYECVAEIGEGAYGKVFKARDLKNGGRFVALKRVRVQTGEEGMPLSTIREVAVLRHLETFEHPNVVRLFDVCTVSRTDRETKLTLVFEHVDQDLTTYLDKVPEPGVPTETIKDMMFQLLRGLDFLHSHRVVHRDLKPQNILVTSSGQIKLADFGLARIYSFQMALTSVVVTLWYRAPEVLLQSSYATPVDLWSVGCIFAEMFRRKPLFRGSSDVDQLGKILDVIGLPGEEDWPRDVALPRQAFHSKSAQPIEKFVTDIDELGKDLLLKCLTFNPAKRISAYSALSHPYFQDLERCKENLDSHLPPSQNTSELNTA
For `CC(C)c1nn(C)c2c1-c1nc(Nc3ccc(N4CCNCC4)cn3)ncc1C2` [US11168088, Compound P-16], half-maximal inhibition (IC50) was put at 53 nM.
